According to ChEMBL document CHEMBL5625279, “Synthesis and antiproliferative activity of a tetrahydrofuran analog of FR901464” (2024):

Assays:
Format in all cases: functional
HCT-116 = experiment: Antiproliferative activity against human HCT-116 cells assessed as growth inhibition incubated for 3 days; settings: HCT-116, 72 h, time 3 day
A549 = experiment: Antiproliferative activity against human A549 cells assessed as growth inhibition incubated for 3 days; settings: A549, 72 h, time 3 day
LS174T = experiment: Antiproliferative activity against human LS174T cells assessed as growth inhibition incubated for 3 days; settings: 72 h, time 3 day

| GI50 (HCT-116) [nM] | GI50 (A549) [nM] | Compound | GI50 (LS174T) [nM] |
| --- | --- | --- | --- |
| 3.1 | 3.9 | COCO[C@@H](C)/C=C\C(=O)N[C@@H]1C[C@H](C)[C@H](C/C=C(C)/C=C/[C@H]2OC(C)(C)C[C@@]3(CO3)[C@@H]2O)O[C@@H]1C | 8.4 |
| 3400 | 8700 | COCO[C@@H](C)/C=C\C(=O)N[C@@H]1C[C@H](C)[C@H](C/C=C(C)/C=C/[C@@H](O)[C@H]2OC(C)(C)C[C@@]23CO3)O[C@@H]1C | 5500 |
| 77 | 608 | COc1cccc2c1C(=O)c1c(O)c3c(c(O)c1C2=O)C[C@@](O)(C(=O)CO)C[C@@H]3O[C@H]1C[C@H](N)[C@H](O)[C@H](C)O1 [DOXORUBICIN] | 248 |

| Compound | GI50 (HCT-116) [nM] | GI50 (A549) [nM] | GI50 (LS174T) [nM] |
| --- | --- | --- | --- |
| CC(=O)O[C@@H](C)/C=C\C(=O)N[C@@H]1C[C@H](C)[C@H](C/C=C(C)/C=C/[C@H]2OC(C)(C)C[C@@]3(CO3)[C@@H]2O)O[C@@H]1C | 1.1 | 7.4 | 5.7 |
